Measurements published in patent publication US20240148682A1, “METHOD FOR REGULATING DOWNSTREAM SIGNALING PATHWAY MEDIATED BY ACTIVATION OF TRIMETHYLAMINE-N-OXIDE” (China Medical University, priority 2022, published 2024).

How the values were obtained:
[1] = tested on: miR-221; experiment: Quantitative PCR of miR-221 expression in hEPCs; type: cell-based, human; conditions: for inhibiting the expression of miR-221: trimethylamine-N-oxide 300 μM, 125 μM DHA (embodiment 3) or EPA (embodiment 6), 24 hours, compared with comparison group 1
Protocol: To analyze the effects of the omega-3 polyunsaturated fatty in inhibiting the inflammatory responses induced by the activation of the trimethylamine-N-oxide, human endothelial progenitor cells are cultured in the MCDB-131 medium supplemented with the 10% fetal bovine serum and the EGM™-2 growth kit and are administered separately with reagent formulations of the control group 1, the comparison group 1, and the embodiments 1 to 6 shown in Table 1. After the culture time of 24 hours has elapsed, the expressions of cytokines related to the inflammatory responses in the human endothelial progenitor cells are analyzed by enzyme-linked immunosorbent assay (ELISA) and quantitative PCR (qPCR) so as to evaluate the effects of the omega-3 polyunsaturated fatty acids in inhibiting the inflammatory responses mediated by the activation of the trimethylamine-N-oxide. Each experiment is repeated 3 times.
In detail, according to the previous studies, miRNA-221 (“miR-221” hereafter) plays an essential role in the physiological metabolism of the human endothelial progenitor cells. […] Therefore, the present disclosure uses the quantitative PCR and the enzyme-linked immunosorbent assay to analyze the expressions of miR-221 and IL-6 in the human endothelial progenitor cells of the control group 1, the comparison group 1, and the embodiments 1 to 6 after cell culture for 24 hours so as to evaluate the effects of the omega-3 polyunsaturated fatty acids in inhibiting the inflammatory responses induced by the activation of the trimethylamine-N-oxide.
Furthermore, the operation details of the quantitative PCR and the enzyme-linked immunosorbent assay are well-known in the art and can be adjusted according to the experimental requirements, so the detailed steps thereof will not be described herein again.

[2] = tested on: Akt/eNOS signaling pathway and MAPK/ERK signaling pathway; experiment: Western blot of factors of the Akt/eNOS and MAPK/ERK signaling pathways in SCF-treated hEPCs; type: cell-based, human; conditions: SCF 20 ng/mL, trimethylamine-N-oxide 300 μM (comparison group 3) vs SCF alone (comparison group 2), 8 hours
Protocol: (§1) To analyze the effects of the omega-3 polyunsaturated fatty acids in alleviating the impairment of neovascularization induced by the activation of the trimethylamine-N-oxide, human endothelial progenitor cells are cultured in the MCDB-131 medium containing the EGM™-2 growth kit and the 10% fetal bovine serum in a Matrigel-coated 96-well plate. Then, the human endothelial progenitor cells are administered separately with reagent formulations of the control group 2, the comparison groups 2 to 3, and the embodiments 7 to 9 shown in Table 2, and incubated in an incubator at 37° C. for 8 hours.
(§2) After the culture time of 8 hours has elapsed, the human endothelial progenitor cells are fixed in glutaraldehyde/paraformaldehyde solution and treated with Calcein-AM solution so as to detect the fluorescent signals of different groups. The proteins of the human endothelial progenitor cells are extracted and analyzed by the Western blot analysis to confirm the expressions of factors related to the Akt/eNOS signaling pathway, the MAPK/ERK signaling pathway and the expression of gamma-glutamylcysteine synthetase (“γ-GCS” hereafter), wherein the γ-GCS participates in the synthesis of GSH. The GSH/GSSG ratios in the human endothelial progenitor cells are analyzed by using the liquid chromatography, the electrospray ionization, and the mass spectrometry. Each experiment is repeated 3 times. […]

[3] = tested on: human endothelial progenitor cells; experiment: GSH/GSSG ratio in hEPCs by liquid chromatography, electrospray ionization, mass spectrometry; type: cell-based; conditions: SCF 20 ng/mL, trimethylamine-N-oxide 300 μM (comparison group 3) vs SCF alone (comparison group 2), p<0.05
Protocol: as §1, §2

[4] = tested on: human endothelial progenitor cells; experiment: Neovasculogenesis index of hEPCs on Matrigel (Calcein-AM); type: cell-based; conditions: SCF 20 ng/mL, trimethylamine-N-oxide 300 μM (comparison group 3) vs SCF alone (comparison group 2), p<0.05
Protocol: as §1
After the culture time of 8 hours has elapsed, the human endothelial progenitor cells are fixed in glutaraldehyde/paraformaldehyde solution and treated with Calcein-AM solution so as to detect the fluorescent signals of different groups. The proteins of the human endothelial progenitor cells are extracted and analyzed by the Western blot analysis to confirm the expressions of factors related to the Akt/eNOS signaling pathway, the MAPK/ERK signaling pathway and the expression of gamma-glutamylcysteine synthetase (“γ-GCS” hereafter), wherein the γ-GCS participates in the synthesis of GSH. The GSH/GSSG ratios in the human endothelial progenitor cells are analyzed by using the liquid chromatography, the electrospray ionization, and the mass spectrometry. Each experiment is repeated 3 times.

Compound	inhibiting the expression of miR-221 [1] [%]	expression of miR-221 ([1]; trimethylamine-N-oxide 300 μM alone (comparison group 1) vs control group 1, 24 hours)	expressions of p-Akt, p-eNOS, and p-ERK1/2 [2]	GSH/GSSG ratio [3]	neovasculogenesis index [4]
CC/C=C\C/C=C\C/C=C\C/C=C\C/C=C\C/C=C\CCC(=O)O [DHA, docosahexaenoic acid]	85				
C[N+](C)(C)[O-] [trimethylamine-N-oxide, Trimethylamine-N-oxide]		significantly higher	lower	significantly lower	significantly lower
CC/C=C\C/C=C\C/C=C\C/C=C\C/C=C\CCCC(=O)O [EPA, eicosapentaenoic acid]	75				
